Laboratory results from US20240217967A1, “INDOLINE DERIVATIVES AS DDRS INHIBITORS” (CHIESI FARMACEUTICI S.P.A., priority 2021, published 2024).

Tests used:
[1] = biological target: T1, DDR1 (Homo sapiens, UniProt Q08345); test: DDR1 LanthaScreen Europium Kinase Binding assay; details: binding affinity; IC50 converted in Ki using Cheng-Prusoff; read-out: Ki DDR1
In short: (§1)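 Binding by TR-FRET tracer displacement: compounds incubated 1 h at room temperature with 5 nM DDR1 plus 20 nM Kinase Tracer 178, or 5 nM DDR2 plus 10 nM tracer, and 2 nM Eu anti-GST antibody in pH 7.5 HEPES/MgCl2/EGTA/BRIJ35 buffer. 665/615 nm ratio gave four-parameter IC50, converted to Ki via Cheng-Prusoff.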

[2] = biological target: T2, DDR2 (Homo sapiens, UniProt Q16832); test: DDR2 LanthaScreen Europium Kinase Binding assay; details: binding affinity; IC50 converted in Ki using Cheng-Prusoff; read-out: Ki DDR2
T2 sequence (Q16832 22-855): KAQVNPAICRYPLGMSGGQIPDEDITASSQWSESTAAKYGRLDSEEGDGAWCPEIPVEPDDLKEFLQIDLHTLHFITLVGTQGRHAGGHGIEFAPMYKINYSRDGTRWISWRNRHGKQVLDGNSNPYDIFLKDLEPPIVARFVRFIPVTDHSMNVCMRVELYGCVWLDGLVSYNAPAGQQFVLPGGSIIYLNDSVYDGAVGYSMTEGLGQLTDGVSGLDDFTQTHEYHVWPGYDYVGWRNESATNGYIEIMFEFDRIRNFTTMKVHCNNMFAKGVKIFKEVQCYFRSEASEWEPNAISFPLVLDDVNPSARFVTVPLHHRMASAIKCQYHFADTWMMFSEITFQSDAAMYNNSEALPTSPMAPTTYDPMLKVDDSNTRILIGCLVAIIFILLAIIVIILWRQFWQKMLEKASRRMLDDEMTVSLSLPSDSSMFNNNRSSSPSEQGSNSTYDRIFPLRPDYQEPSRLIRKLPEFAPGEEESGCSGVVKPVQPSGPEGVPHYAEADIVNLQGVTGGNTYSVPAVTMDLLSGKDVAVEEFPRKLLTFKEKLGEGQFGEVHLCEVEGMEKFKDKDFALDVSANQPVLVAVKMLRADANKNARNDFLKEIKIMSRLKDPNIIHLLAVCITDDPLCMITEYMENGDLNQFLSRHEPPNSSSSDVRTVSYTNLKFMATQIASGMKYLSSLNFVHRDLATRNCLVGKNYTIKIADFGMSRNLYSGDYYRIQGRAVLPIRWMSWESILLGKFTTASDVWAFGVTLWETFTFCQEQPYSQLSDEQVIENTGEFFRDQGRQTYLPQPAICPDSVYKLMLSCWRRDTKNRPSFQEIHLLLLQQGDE
In short: as §1

[3] = biological target: T1, DDR1; test: DDR1 cell based assay (PathHunter U2OS DDR1, collagen II stimulation); details: U2OS-DDR1 cells, bovine Type II Collagen stimulation
In short: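 Receptor activation measured by enzyme-fragment complementation luminescence in engineered U2OS cells. Compound added 30 min before overnight challenge with 20 μg/ml bovine collagen II; data scaled between vehicle and collagen-stimulated controls, IC50 derived by four-parameter variable-slope fitting.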

T1 sequence (Q08345 19-913): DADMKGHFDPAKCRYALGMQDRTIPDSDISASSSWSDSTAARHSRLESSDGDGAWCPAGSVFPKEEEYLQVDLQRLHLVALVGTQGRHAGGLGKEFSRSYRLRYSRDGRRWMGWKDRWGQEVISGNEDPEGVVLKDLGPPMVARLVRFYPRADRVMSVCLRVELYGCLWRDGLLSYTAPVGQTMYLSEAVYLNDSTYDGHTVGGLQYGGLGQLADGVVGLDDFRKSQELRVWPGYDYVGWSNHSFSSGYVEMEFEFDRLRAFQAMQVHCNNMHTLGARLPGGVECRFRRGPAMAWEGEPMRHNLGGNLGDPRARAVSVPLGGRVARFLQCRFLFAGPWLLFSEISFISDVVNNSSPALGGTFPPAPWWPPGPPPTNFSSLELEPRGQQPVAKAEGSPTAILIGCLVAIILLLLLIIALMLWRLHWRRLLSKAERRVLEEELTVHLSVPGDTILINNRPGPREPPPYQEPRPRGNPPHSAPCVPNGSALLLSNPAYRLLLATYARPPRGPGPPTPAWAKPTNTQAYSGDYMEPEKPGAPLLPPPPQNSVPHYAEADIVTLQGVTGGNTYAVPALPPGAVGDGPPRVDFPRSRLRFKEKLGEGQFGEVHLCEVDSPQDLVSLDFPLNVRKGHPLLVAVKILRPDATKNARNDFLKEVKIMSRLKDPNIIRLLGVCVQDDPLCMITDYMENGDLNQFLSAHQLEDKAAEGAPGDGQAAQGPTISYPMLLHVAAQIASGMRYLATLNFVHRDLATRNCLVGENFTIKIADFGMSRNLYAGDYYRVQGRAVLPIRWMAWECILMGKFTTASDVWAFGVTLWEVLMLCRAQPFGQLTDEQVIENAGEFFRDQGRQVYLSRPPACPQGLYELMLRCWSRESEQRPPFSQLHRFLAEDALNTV

Ki [1] | Ki [2] | IC50 [3] | SMILES
< 25 nM | < 25 nM | 25 to 50 nM | CN1CCN(Cc2cc(C(=O)Nc3ccc4c(c3)N(Cc3ccc5ncsc5c3)CC4)cc(C(F)(F)F)c2)CC1 [Example 17, N-(1-(benzo[d]thiazol-6-ylmethyl)indolin-6-yl)-3-((4-methylpiperazin-1-yl)methyl)-5-(trifluoromethyl)benzamide]
< 25 nM | < 25 nM | 50 to 80 nM | O=C(Nc1cc(C(F)(F)F)ncn1)c1ccc2c(c1)N(Cc1cnc3cnccn13)CC2 [Example 88]
< 25 nM | < 25 nM | < 25 nM | O=C(Nc1cc(F)cc(OC(F)(F)F)c1)c1ccc2c(c1)N(Cc1cnc3cnccn13)CC2 [Example 44, N-(3-fluoro-5-(trifluoromethoxy)phenyl)-1-(imidazo[1,2-a]pyrazin-3-ylmethyl)indoline-6-carboxamide]
25 to 50 nM | < 25 nM | 25 to 50 nM | CC(C)(C)c1cc(NC(=O)c2ccc3c(c2)N(Cc2cnc4[nH]ncc4c2)CC3)n(-c2ccccc2)n1 [Example 40, 1-((1H-pyrazolo[3,4-b]pyridin-5-yl)methyl)-N-(3-(tert-butyl)-1-phenyl-1H-pyrazol-5-yl)indoline-6-carboxamide]
< 25 nM | < 25 nM | < 25 nM | CN(C)Cc1c[nH]c2ncc(CN3CCc4ccc(C(=O)Nc5cccc(C(F)(F)F)c5)cc43)cc12 [Example 90, 1-((3-((dimethylamino)methyl)-1H-pyrrolo[2,3-b]pyridin-5-yl)methyl)-N-(3-(trifluoromethyl)phenyl)indoline-6-carboxamide]
< 25 nM | < 25 nM | 50 to 80 nM | O=C(Nc1cccc(C(F)(F)F)c1)c1ccc2c(c1)N(Cc1cnc3ccnn3c1)CC2 [Example 63, 1-(pyrazolo[1,5-a]pyrimidin-6-ylmethyl)-N-(3-(trifluoromethyl)phenyl)indoline-6-carboxamide]
25 to 50 nM | 50 to 80 nM | 50 to 80 nM | O=C(Nc1cc(F)cc(C(F)(F)F)c1)c1ccc2c(c1)N(Cc1ccc3[nH]cnc3c1)CC2 [Example 62, 1-((1H-benzo[d]imidazol-5-yl)methyl)-N-(3-fluoro-5-(trifluoromethyl)phenyl)indoline-6-carboxamide]

Second part, the compound before the results:

SMILES | Ki [1] | Ki [2] | IC50 [3]
O=C(Nc1cc(OCCN2CCOCC2)cc(C(F)(F)F)c1)c1ccc2c(c1)N(Cc1cnc3cnccn13)CC2 [Example 53, 1-(imidazo[1,2-a]pyrazin-3-ylmethyl)-N-(3-(2-morpholinoethoxy)-5-(trifluoromethyl)phenyl)indoline-6-carboxamide] | < 25 nM | < 25 nM | 50 to 80 nM
Cc1cn(-c2cc(NC(=O)c3ccc4c(c3)N(Cc3ccc5[nH]cnc5c3)CC4)cc(C(F)(F)F)c2)cn1 [Example 4, 1-((1H-benzo[d]imidazol-5-yl)methyl)-N-(3-(4-methyl-1H-imidazol-1-yl)-5-(trifluoromethyl)phenyl)indoline-6-carboxamide] | < 25 nM | < 25 nM | 25 to 50 nM
CN1CCN(Cc2cc(NC(=O)c3ccc4c(c3)N(Cc3cnc5ccccn35)CC4)cc(C(F)(F)F)c2)CC1 [Example 11, 1-(imidazo[1,2-a]pyridin-3-ylmethyl)-N-(3-((4-methylpiperazin-1-yl)methyl)-5-(trifluoromethyl)phenyl)indoline-6-carboxamide] | < 25 nM | < 25 nM | 50 to 80 nM
CCC1CN(Cc2cnc3cnccn23)c2cc(C(=O)Nc3cc(-n4cnc(C)c4)cc(C(F)(F)F)c3)ccc21 (single isomer, unassigned) [Example 64, 3-ethyl-1-(imidazo[1,2-a]pyrazin-3-ylmethyl)-N-(3-(4-methyl-1H-imidazol-1-yl)-5-(trifluoromethyl)phenyl)indoline-6-carboxamide] | < 25 nM | < 25 nM | 25 to 50 nM
O=C(Nc1cccc(C(F)(F)F)c1)c1ccc2c(c1)N(Cc1cnc3cnccn13)CC2 [Example 42, 1-(imidazo[1,2-a]pyrazin-3-ylmethyl)-N-(3-(trifluoromethyl)phenyl)indoline-6-carboxamide] | < 25 nM | < 25 nM | < 25 nM
CC1CN(Cc2cnc3[nH]ccc3c2)c2cc(C(=O)Nc3cccc(C(F)(F)F)c3)ccc21 (stereo not drawn) [Example 32, 1-((1H-pyrrolo[2,3-b]pyridin-5-yl)methyl)-3-methyl-N-(3-(trifluoromethyl)phenyl)indoline-6-carboxamide] | 25 to 50 nM | 25 to 50 nM | < 25 nM
CN1CCC(Oc2ccc(NC(=O)c3ccc4c(c3)N(Cc3cnc5cnccn35)CC4)cc2C(F)(F)F)CC1 [Example 54, 1-(imidazo[1,2-a]pyrazin-3-ylmethyl)-N-(4-((1-methylpiperidin-4-yl)oxy)-3-(trifluoromethyl)phenyl)indoline-6-carboxamide] | < 25 nM | < 25 nM | 50 to 80 nM
Cc1n[nH]c2ncc(CN3CCc4ccc(C(=O)Nc5cc(CN6CC[C@@H](N(C)C)C6)nc(C(F)(F)F)c5)cc43)cc12 [Example 84, (R)-N-(2-((3-(dimethylamino)pyrrolidin-1-yl)methyl)-6-(trifluoromethyl)pyridin-4-yl)-1-((3-methyl-1H-pyrazolo[3,4-b]pyridin-5-yl)methyl)indoline-6-carboxamide] | < 25 nM | < 25 nM | < 25 nM
O=C(Nc1cccc(OC(F)(F)F)c1)c1ccc2c(c1)N(Cc1cnc3ccccn13)CC2 [Example 55, 1-(imidazo[1,2-a]pyridin-3-ylmethyl)-N-(3-(trifluoromethoxy)phenyl)indoline-6-carboxamide] | < 25 nM | 25 to 50 nM | < 25 nM
Cc1n[nH]c2ncc(CN3CCc4ccc(C(=O)Nc5cc(C(=O)NCCN(C)C)cc(C(F)(F)F)c5)cc43)cc12 [Example 73, N-(3-((2-(dimethylamino)ethyl)carbamoyl)-5-(trifluoromethyl)phenyl)-1-((3-methyl-1H-pyrazolo[3,4-b]pyridin-5-yl)methyl)indoline-6-carboxamide] | < 25 nM | < 25 nM | < 25 nM
CN(C)Cc1cc(NC(=O)c2ccc3c(c2)N(Cc2cnc4cnccn24)CC3)cc(C(F)(F)F)c1 [Example 51, N-(3-((dimethylamino)methyl)-5-(trifluoromethyl)phenyl)-1-(imidazo[1,2-a]pyrazin-3-ylmethyl)indoline-6-carboxamide] | < 25 nM | < 25 nM | 25 to 50 nM
CC1CN(Cc2cnc3ccccn23)c2cc(C(=O)Nc3cccc(C(F)(F)F)c3)ccc21 (stereo not drawn) [Example 33, 1-(imidazo[1,2-a]pyridin-3-ylmethyl)-3-methyl-N-(3-(trifluoromethyl)phenyl)indoline-6-carboxamide] | < 25 nM | 25 to 50 nM | 50 to 80 nM
CC1CN(Cc2cnc3[nH]ncc3c2)c2cc(C(=O)Nc3cncc(C(F)(F)F)c3)ccc21 (stereo not drawn) [Example 91, 1-((1H-pyrazolo[3,4-b]pyridin-5-yl)methyl)-3-methyl-N-(5-(trifluoromethyl)pyridin-3-yl)indoline-6-carboxamide] | < 25 nM | < 25 nM | < 25 nM
CN1CCN(Cc2ccc(NC(=O)c3ccc4c(c3)N(Cc3cnn5ccncc35)CC4)cc2C(F)(F)F)CC1 [Example 86, N-(4-((4-methylpiperazin-1-yl)methyl)-3-(trifluoromethyl)phenyl)-1-(pyrazolo[1,5-a]pyrazin-3-ylmethyl)indoline-6-carboxamide] | < 25 nM | < 25 nM | 25 to 50 nM
